Here are results for 12 compounds from PMC9246256, “Structure-based optimization of type III indoleamine 2,3-dioxygenase 1 (IDO1) inhibitors” (Journal of Enzyme Inhibition and Medicinal Chemistry, 2022).

The subject of one data set is HEK 293 T cells. Kind of data set: Cell viability / cellular toxicity (DAPI staining, cytometry). It is filed as cell-based, human. The conditions noted are these: 7 h. How it is done: (§1) We tested the cellular hIDO1 inhibitory activity and toxicity of 30 active compounds at a single concentration (Figure 6 and Table 8). As some of the aniline derivatives reacted with Ehrlich’s reagent (p-dimethylaminobenzaldehyde, p-DMAB) used to quantify kynurenine, the kynurenine content of these samples was determined by HPLC. To be able to detect also weak inhibition, compounds were tested at the high concentration of 200 µM (Figure 6A and B, filled bars), except for less soluble compounds (52, 148, 149 and 153), which were tested at a concentration of 50 µM (Figure 6A and B, empty bars).
Following DMSO (negative control) or inhibitor treatments, apoptotic cells were detected by 4′,6-diamidino-2-phenylindole (DAPI) staining. Briefly, after 7 h of incubation, cells were washed with PBS, resuspended in PBS with 1 µg/mL DAPI and immediately analysed using a BD LSR II cytometer. A 405 nm laser with 450/50 nm bandpass filter was used to collect data.

Data set [1] addresses T1, purified recombinant IDO1 (Homo sapiens, UniProt P14902).
T1 construct: Full-length human IDO1 gene was cloned into the pET-28a vector; inferred from pET-28a vector and HisTrap purification; made in house; host or cells: E. coli Rosetta (DE3)
Description: Enzymatic IDO1 inhibition assay (ascorbate/methylene blue reduction system, HPLC detection of kynurenine). Type of data set: biochemical. The conditions noted are these: for IC50: enzymatic, L-Trp 100 µM, 0.01% Triton X-100, 5% DMSO, 20 min at room temperature, pH 6.5, duplicates, read-out: IC50 [ μ M] (SD); for LE [kcal/mol/HA]: ligand efficiency, LE = -RT log(IC50)/number of heavy atoms, from enzymatic IC50.

Data set [2] addresses T2, hIDO1 (Homo sapiens, UniProt P14902).
T2 construct: The full ORF of hIDO1 was cloned into the mammalian expression vector pcDNA6/myc-His; myc-His (vector-encoded); host or cells: HEK 293 T
Kind of data set: Cellular hIDO1 inhibition (kynurenine production) in transiently transfected HEK 293 T cells. It is filed as cell-based. How it is done: as §1
The cDNA encoding hIDO1 (NCBI, NM 0021464.3) was purchased from Origene as pCMV6-Entry vector (RC206592). The full ORF of hIDO1 was cloned into the mammalian expression vector pcDNA6/myc-His from Invitrogen. Human embryonic kidney 293 T (HEK 293 T) cells were transiently transfected with the plasmid construct encoding hIDO1. A 75 cm^2 flask containing HEK 293 T cells at a confluency of 70% was transfected with jetPEI DNA transfection reagent (Polyplus-transfection), according to manufacturer’s protocol. A total of 20 µg of pcDNA-IDO1 along with 5 µg of pcDNA-GFP plasmid were used for the transfection; GFP was used to evaluate transfection efficiency prior to the cellular assays. 16–18 h post-transfection the 293 T cells were detached with trypsin, centrifuged, and re-suspended in 25 mL of DMEM medium without phenol red, supplemented with penicillin and streptomycin, 10% foetal bovine serum and 1 mM pyruvate (Gibco). Subsequently, 100 µL of cells were distributed to each well of two 96-well round-bottom plates that had been pre-loaded with 100 µL DMEM and the small organic test molecule in DMSO (for a final DMSO concentration of 2%). DMEM medium contains 78 µM L-Trp and was supplemented with 500 µM of L-Trp. Cells transfected with hIDO1 were incubated for 7 h at 37 °C in a CO2 incubator. The reaction was stopped in its linear phase by adding trichloroacetic acid (TCA) to the medium at a final concentration of 4%. Plates were centrifuged for 15 min at 4,000 rpm. 100 µL of supernatant was added to 100 µL of 2% (w/v) DMAB in glacial acetic acid. After 10 min the absorbance was measured at a wavelength of 480 nm to detect kynurenine formation. Alternatively, kynurenine content was determined by HPLC as done for the enzymatic assay.

Data set [3] concerns the target T2, hIDO1. The data set is described as above. Type of data set: cell-based. The conditions noted are these: HEK 293 T cells transfected with hIDO1; read-out: Cell. IC50 [ μ M] (SD).
Data set [4] can be described thus: Compound solubility (qualitative remarks). Type of data set: physicochemical.
For another data set, the system named is IDO1. The conditions noted are these: cited from earlier work.
[5] abbreviates: values of Panda and co-workers, not reproduced here, read-out: published IC50 values.

Values joined by “and” are separate entries in the source; they are usually repeats but may differ in a detail not shown here. Equal entries are not always repeated. “Also recorded” adds a separate entry of the source. Where two headings read alike, the source gives them in different places.

T2 sequence (P14902 whole entry): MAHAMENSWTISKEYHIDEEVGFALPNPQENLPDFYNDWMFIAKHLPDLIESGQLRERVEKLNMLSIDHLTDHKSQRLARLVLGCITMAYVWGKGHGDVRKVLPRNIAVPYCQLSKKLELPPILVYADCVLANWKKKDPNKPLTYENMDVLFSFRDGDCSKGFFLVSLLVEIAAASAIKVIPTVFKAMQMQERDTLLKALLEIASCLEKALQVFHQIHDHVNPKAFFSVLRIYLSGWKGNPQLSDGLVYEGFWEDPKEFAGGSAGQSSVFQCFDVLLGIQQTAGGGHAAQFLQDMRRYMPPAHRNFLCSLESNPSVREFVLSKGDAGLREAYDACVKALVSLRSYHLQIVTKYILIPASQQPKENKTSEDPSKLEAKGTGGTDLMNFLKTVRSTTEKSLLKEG
T1 sequence (P14902 whole entry): as above

In the case of `Nc1ccc(F)cc1-c1nc[nH]n1` [Compound 143, 4-Fluoro-2-(1H-1,2,4-triazol-3-yl)aniline], in the data set with HEK 293 T cells (compound 200 µM), the “Tox. [%]” value is on record as 18 (0.5) %. In addition, the IC50 in data set [1] came out at 0.15 µM; on hIDO1 [3] it was 0.25 µM. The “LE [kcal/mol/HA]” value in data set [1] was 0.72 kcal/mol/HA. Also, the inhibition at 200 µM against hIDO1 [2] worked out at 86%.
As to `O=C(Nc1ccc(Cl)cc1-c1nc[nH]n1)C1CC1` [Compound 149, N-(4-Chloro-2-(1H-1,2,4-triazol-3-yl)phenyl)cyclopropanecarboxamide], the melting point was in the range of 183 to 186 °C. Besides, the “Tox. [%]” value in the data set with HEK 293 T cells (compound 50 µM) is 19 (2) %. In data set [1], the 50% inhibitory concentration (IC50) stood at 0.49 µM and the “LE [kcal/mol/HA]” value is 0.48 kcal/mol/HA. This compound showed an inhibition at 50 µM at hIDO1 [2] of 100%. For the same compound, the “solubility (in words)” value in data set [4] is given as “less soluble”.
In turn, `Clc1cc(Cl)c(-c2c[nH]nn2)cc1Cl` [Compound 52, 4–(2,4,5-Trichlorophenyl)-1,2,3-triazole] gave a melting point of 190 to 192 °C. Also, in the data set on HEK 293 T cells (compound 50 µM), the “Tox. [%]” value is 7.9 (1) %. Moreover, in data set [1], the 50% inhibitory concentration (IC50) worked out at 33 µM and the “LE [kcal/mol/HA]” value is listed as 0.44 kcal/mol/HA. This compound also came in with an inhibition at 50 µM against hIDO1 [2] of 44%. Besides, the “solubility (in words)” value in data set [4] is “less soluble”.
In the case of `Clc1cccc(-c2nn[nH]c2-c2cccc(Cl)c2)c1` [Compound 64, 4,5-Bis(3-chlorophenyl)-1,2,3-triazole, reference compound], the IC50 in data set [1] is above 50 µM; in the data set on IDO1 (setting [5]), 2.51 µM.
`O=C(Nc1ccc(Cl)cc1-c1nc[nH]n1)c1ccccc1` [Compound 153, N-(4-Chloro-2-(1H-1,2,4-triazol-3-yl)phenyl)benzamide]: the “Tox. [%]” value with HEK 293 T cells (compound 50 µM) was 5.9 (8) %. Moreover, in data set [1], the IC50 is 9.4 µM and 9.3 µM. The compound also came in with an inhibition at 50 µM against hIDO1 [2] of 87%. Moreover, the “solubility (in words)” value in data set [4] is recorded as “low solubility; also recorded: less soluble”.
`CCCC(=O)Nc1ccc(Cl)cc1-c1nc[nH]n1` [Compound 148, N-(4-Chloro-2-(1H-1,2,4-triazol-3-yl)phenyl)butyramide] showed a melting point of 156 to 158 °C. Besides, the “Tox. [%]” value in the data set with HEK 293 T cells (compound 50 µM) is given as 17 (2) %. Also, in data set [1], the IC50 was 24 µM and 25 µM; the “LE [kcal/mol/HA]” value is recorded as 0.35 kcal/mol/HA. For the same compound, the inhibition at 50 µM at hIDO1 [2] amounted to 93%. Further, the “solubility (in words)” value in data set [4] is given as “less soluble”.
Turning to `Clc1ccc(Nc2cnn[nH]2)cc1` [Compound 10, reference compound], the half-maximal inhibitory concentration (IC50) in data set [1] was 56 µM; in the data set on IDO1 (read-out: IC50 value in the original publication), 11.3 µM. For the same compound, the “LE [kcal/mol/HA]” value in data set [1] is recorded as 0.44 kcal/mol/HA.
Consider `CCOC(=O)c1[nH]nnc1-c1ccc(Cl)cc1` [Compound 65, reference compound], for which the IC50 is above 1000 µM in data set [1] and 0.39 µM in the data set with IDO1 (setting [5]).
On to `NC(=O)c1[nH]nnc1-c1ccc(Cl)cc1` [Compound 66, 4–(4-Chlorophenyl)-1H-1,2,3-triazole-5-carboxamide, reference compound], for which, in data set [1], the concentration for half-maximal inhibition (IC50) worked out at 800 µM and the “LE [kcal/mol/HA]” value was 0.28 kcal/mol/HA. Further, the IC50 with IDO1 (setting [5]) was 0.62 µM.
`O=C(Nc1ccc(Cl)cc1-c1nc[nH]n1)C1CCC1` [Compound 150, N-(4-Chloro-2-(1H-1,2,4-triazol-3-yl)phenyl)cyclobutanecarboxamide]: the melting point lay within 201 to 203 °C. Also, the IC50 in data set [1] is above 100 µM. Further, in data set [4], the “solubility (in words)” value is on record as “strongly reduced solubilities”.
With `Nc1c(F)cccc1-c1nc[nH]n1` [Compound 140, 2-Fluoro-6-(1H-1,2,4-triazol-3-yl)aniline], in the data set on HEK 293 T cells (compound 200 µM), the “Tox. [%]” value is 17 (3) %. Moreover, the IC50 came out at 0.81 µM in data set [1] and 1.2 µM at hIDO1 [3]. Besides, the “LE [kcal/mol/HA]” value in data set [1] came out at 0.64 kcal/mol/HA. This compound had an inhibition at 200 µM on hIDO1 [2] of 100%.
Compound `O=C(Nc1ccc(Cl)cc1-c1nc[nH]n1)C1CCCC1` [Compound 151, N-(4-Chloro-2-(1H-1,2,4-triazol-3-yl)phenyl)cyclopentanecarboxamide] had a melting point of 197 to 199 °C. Moreover, the IC50 in data set [1] was above 100 µM. The “solubility (in words)” value in data set [4] was “strongly reduced solubilities”.

In general, IC50 refers to the concentration needed to halve the response being measured. Usually inhibition stands for the drop in the measured response relative to a control, in per cent. For orientation: melting point means the temperature of the solid-liquid transition.
